Laboratory results from ChEMBL document CHEMBL4431323, “Synthesis and carbonic anhydrase inhibitory effects of new N-glycosylsulfonamides incorporating the phenol moiety” (Bioorg Med Chem Lett, 2016).

How the values were obtained:
Carbonic anhydrase 9 = Carbonic anhydrase 9 (Homo sapiens, UniProt Q16790); assay: Inhibition of human carbonic anhydrase 9 incubated for 15 mins prior to testing by stopped flow CO2 hydration assay
Carbonic anhydrase 12 = Carbonic anhydrase 12 (Homo sapiens, UniProt O43570); assay: Inhibition of human carbonic anhydrase 12 incubated for 15 mins prior to testing by stopped flow CO2 hydration assay
Chain of Carbonic anhydrase 12 (O43570 whole entry): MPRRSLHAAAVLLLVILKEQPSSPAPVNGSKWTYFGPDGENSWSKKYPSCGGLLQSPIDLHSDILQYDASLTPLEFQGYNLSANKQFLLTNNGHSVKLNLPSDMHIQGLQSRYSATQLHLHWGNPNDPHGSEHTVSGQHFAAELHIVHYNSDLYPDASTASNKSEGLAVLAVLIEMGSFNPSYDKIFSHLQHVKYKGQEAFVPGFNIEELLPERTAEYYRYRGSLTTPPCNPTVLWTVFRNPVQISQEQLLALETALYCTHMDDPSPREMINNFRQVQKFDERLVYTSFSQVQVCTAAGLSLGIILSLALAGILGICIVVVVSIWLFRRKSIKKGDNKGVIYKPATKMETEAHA

| Compound | Ki (Carbonic anhydrase 9) | Ki (Carbonic anhydrase 12) |
| --- | --- | --- |
| O=S(=O)(N[C@H]1C=C[C@@H](O)[C@@H](CO)O1)c1ccc(O)cc1 | > 50 µM | > 50 µM |
| NS(=O)(=O)c1ccc(O)cc1 | 0.235 µM | 0.176 µM |
| CC(=O)OC[C@H]1OC(NS(=O)(=O)c2ccc(O)cc2)C(OC(C)=O)=C[C@@H]1OC(C)=O (stereo partly drawn) | > 50 µM | > 50 µM |
| O=C1C[C@H](O)[C@@H](CO)OC1NS(=O)(=O)c1ccc(O)cc1 (stereo partly drawn) | > 50 µM | > 50 µM |
| CC(=O)OC[C@H]1O[C@H](NS(=O)(=O)c2ccc(O)cc2)C=C[C@H]1OC(C)=O | > 50 µM | > 50 µM |
| CC(=O)OC[C@H]1OC(NS(=O)(=O)c2ccc(O)cc2)C=C[C@@H]1OC(C)=O (relative stereo) | > 50 µM | > 50 µM |
| O=S(=O)(NC1C=C[C@H](O)[C@@H](CO)O1)c1ccc(O)cc1 (stereo partly drawn) | > 50 µM | > 50 µM |
| CC(=O)OC[C@H]1O[C@@H](NS(=O)(=O)c2ccc(O)cc2)C=C[C@H]1OC(C)=O | > 50 µM | > 50 µM |
| O=S(=O)(N[C@@H]1C=C[C@@H](O)[C@@H](CO)O1)c1ccc(O)cc1 | > 50 µM | > 50 µM |
